From US10954221B2, “GLP-1R agonists and uses thereof” (QILU REGOR THERAPEUTICS INC., priority 2019, dated 2021)
Blank lines part the entries; values can stand above or below the compound they belong to.

Target: GLP1R (Homo sapiens, UniProt P43220)
Assay: GLP1R cAMP assay (HTRF), HEK293/GLP-1R/CRE/Luc, Clone 4
Method: GLP-1R-mediated agonist activity was determined with a cell-based functional assay utilizing an HTRF (Homogeneous Time-Resolved Fluorescence) cAMP detection kit (cAMP Dynamic 2 Assay Kit; CisBio cat #62AM4PEC) that measures cAMP levels in the cell. The method is a competitive immunoassay between native cAMP produced by the cells and exogenous cAMP labeled with the dye d2. The tracer binding is visualized by a mAb anti-cAMP labeled with Cryptate. The specific signal (i.e., energy transfer) is inversely proportional to the concentration of cAMP in either standard or experimental sample.
The human GLP-1R coding sequence (NCBI Reference Sequence NM_002062) was subcloned into pcDNA3.1+/Hygro vector (Invitrogen) and transfected into HEK293/CRE/Luc parental cell line. A cell line stably expressing the receptor was isolated.
Varying concentrations of each compound to be tested (in DMSO) were diluted in DMSO to obtain 200× compound working solution first and then 50 nl compounds were added to a white 384-well assay plate (Greiner 784075) with ECHO. The final DMSO concentration was 0.5%.
Cells were removed from cryopreservation, re-suspended in 5 mL of Dulbecco's Phosphate Buffered Saline (DPBS-Sigma Cat #D8537) and centrifuged at 900×g for 5 min at 22° C. The cell pellet was then re-suspended in 1 mL of assay buffer [DPBS with 500 μM IBMX (Sigma #15879) and 0.1% BSA (Sigma #A1933). IBMX and BSA were freshly added on the day of assay]. A 10 μL sample of the cell suspension was counted on an Invitrogen Countess II to determine cell viability and cell count per mL. The remaining cell suspension was then adjusted with assay buffer to deliver 1000 viable cells per well using a Matrix Combi Multidrop reagent dispenser. 10 μL cell suspensions were added to each well
of the assay plate which already contains compound. The plate was sealed and incubated at 37° C. with 5% CO2 for 30 minutes.
Following the 30 minute incubation, 5 μL of labeled d2 cAMP and 5 μL of anti-cAMP antibody (both diluted 1:20 in cell lysis buffer; as described in the manufacturer's assay protocol) were added to each well of the assay plate. The plates were then incubated at room temperature and after 60 minutes, changes in the HTRF signal were read with an Envision multi-label plate reader using excitation of 330 nm and emissions of 615 and 665 nm. Raw data were converted to nM cAMP by interpolation from a cAMP standard curve (as described in the manufacturer's assay protocol) and the percent effect was determined relative to a saturating concentration of the full agonist GLP-17-37 (10 nM) included on each plate. EC50 determinations were made from agonist dose-response curves analyzed with a curve fitting program using a 4-parameter logistic dose response equation.

GLP1R, sequence (P43220 24-463): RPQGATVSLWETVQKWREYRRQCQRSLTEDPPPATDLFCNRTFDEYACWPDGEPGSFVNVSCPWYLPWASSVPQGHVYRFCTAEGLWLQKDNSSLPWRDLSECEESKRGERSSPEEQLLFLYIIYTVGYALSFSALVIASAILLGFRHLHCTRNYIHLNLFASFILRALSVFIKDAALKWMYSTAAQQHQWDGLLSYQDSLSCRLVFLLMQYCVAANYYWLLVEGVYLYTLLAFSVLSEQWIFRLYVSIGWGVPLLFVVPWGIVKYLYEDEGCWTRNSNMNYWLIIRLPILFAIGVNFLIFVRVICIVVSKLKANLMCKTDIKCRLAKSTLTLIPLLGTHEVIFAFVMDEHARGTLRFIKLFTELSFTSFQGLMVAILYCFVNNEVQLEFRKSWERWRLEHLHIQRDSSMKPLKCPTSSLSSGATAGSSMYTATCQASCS

Compound: O=C(O)c1ccc2nc(Cc3cc(F)c(-c4cccc(OCc5ncc(F)cc5F)n4)cc3F)n(C[C@@H]3CCO3)c2n1 [Compound 297, (S)-2-(4-(6-((3,5-difluoropyridin-2-yl)methoxy)pyridin-2-yl)-2,5-difluorobenzyl)-3-(oxetan-2-ylmethyl)-3H-imidazo[4,5-b]pyridine-5-carboxylic acid]
EC50: < 15 nM

Compound: O=C(O)c1ccc2nc(Cc3ccc(-c4nc(OCc5ccc(Cl)cc5F)c(F)cc4F)cc3F)n(C[C@@H]3CCO3)c2n1 [Compound 299, (S)-2-(4-(6-(4-chloro-2-fluorobenzyloxy)-3,5-difluoropyridin-2-yl)-2-fluorobenzyl)-3-(oxetan-2-ylmethyl)-3H-imidazo [4,5-b]pyridine-S-carboxylic acid]
EC50: < 15 nM

Compound: N#Cc1cnc(COc2nc(-c3ccc(Cc4nc5ccc(C(=O)O)nc5n4C[C@@H]4CCO4)cc3F)ncc2F)c(F)c1 [Compound 302, (S)-2-(4-(4-((5-cyano-3-fluoropyridin-2-yl)methoxy)-5-fluoropyrimidin-2-yl)-3-fluorobenzyl)-3-(oxetan-2-ylmethyl)-3H-imidazo[4,5-b]pyridine-5-carboxylic acid]
EC50: 15 to 150 nM

Compound: O=C(O)c1ccc2nc(Cc3ccc(-c4cccc(OCc5ccc(-n6ccnc6)cc5)n4)cc3F)n(C[C@@H]3CCO3)c2n1 [Compound 304, (S)-2-(4-(6-((4-(1H-imidazol-1-yl)benzyl)oxy)pyridin-2-yl)-2-fluorobenzyl)-3-(oxetan-2-ylmethyl)-3H-imidazo[4,5-b]pyridine-5-carboxylic acid]
EC50: < 15 nM

Compound: O=C(O)c1ccc2nc(Cc3ccc(-c4nc(OCc5ccc(Cl)cc5F)c(F)cc4F)c(F)c3)n(C[C@@H]3CCO3)c2n1 [Compound 306, (S)-2-(4-(6-((4-chloro-2-fluorobenzyl)oxy)-3,5-difluoropyridin-2-yl)-3-fluorobenzyl)-3-(oxetan-2-ylmethyl)-3H-imidazo[4,5-b]pyridine-5-carboxylic acid]
EC50: < 15 nM

Compound: O=C(O)c1ccc2nc(Cc3ccc(-c4cccc(OCc5ccc(Cl)cc5F)n4)cc3F)n(C[C@@H]3CCO3)c2c1F [Compound 309, (S)-2-(4-(6-((4-chloro-2-fluorobenzyl)oxy)pyridin-2-yl)-2-fluorobenzyl)-7-fluoro-1-(oxetan-2-ylmethyl)-1H-benzo[d]imidazole-6-carboxylic acid]
EC50: < 15 nM

Compound: N#Cc1ccc(COc2nc(-c3cc(F)c(Cc4nc5ccc(C(=O)O)c(F)c5n4C[C@@H]4CCO4)cc3F)ncc2F)nc1 [Compound 313, (S)-2-(4-(4-((5-cyanopyridin-2-yl)methoxy)-5-fluoropyrimidin-2-yl)-2,5-difluorobenzyl)-7-fluoro-1-(oxetan-2-ylmethyl)-1H-benzo[d]imidazole-6-carboxylic acid]
EC50: < 15 nM

Compound: N#Cc1ccc(COc2cccc(N3CCC(=Cc4nc5ccc(C(=O)O)nc5n4C[C@@H]4CCO4)CC3)n2)c(F)c1 [Compound 314, (S)-2-((1-(6-(4-cyano-2-fluorobenzyloxy)pyridin-2-yl)piperidin-4-ylidene)methyl)-3-(oxetan-2-ylmethyl)-3H-imidazo [4,5-b] pyridine-S-carboxylic acid]
EC50: 15 to 150 nM

Compound: O=C(O)c1ccc2nc(C=C3CCN(c4cccc(OCc5ccc(F)cc5F)n4)CC3)n(C[C@@H]3CCO3)c2n1 [Compound 315, (S)-2-((1-(6-(2,4-difluorobenzyloxy)pyridin-2-yl)piperidin-4-ylidene)methyl)-3-(oxetan-2-ylmethyl)-3H-imidazo[4,5-b]pyridine-5-carboxylic acid]
EC50: 150 to 1000 nM

Continued, values first:

EC50: 15 to 150 nM
Compound: N#Cc1ccc(COc2cccc(N3CCC(=Cc4nc5ccc(C(=O)O)nc5n4C[C@@H]4CCO4)CC3)n2)nc1 [Compound 316, (S)-2-((1-(6-((5-cyanopyridin-2-yl)methoxy)pyridin-2-yl)piperidin-4-ylidene)methyl)-3-(oxetan-2-ylmethyl)-3H-imidazo[4,5-b]pyridine-5-carboxylic acid]

EC50: < 15 nM
Compound: N#Cc1ccc(COc2cccc(N3CCC(=Cc4nc5ccc(C(=O)O)cc5n4C[C@@H]4CCO4)CC3)n2)c(F)c1 [Compound 317, (S)-2-((1-(6-((4-cyano-2-fluorobenzyl)oxy)pyridin-2-yl)piperidin-4-ylidene)methyl)-1-(oxetan-2-ylmethyl)-1H-benzo[d]imidazole-6-carboxylic acid]

EC50: 15 to 150 nM
Compound: N#Cc1ccc(COc2cccc(N3CCC(=Cc4nc5ccc(C(=O)O)c(F)c5n4C[C@@H]4CCO4)CC3)n2)nc1 [Compound 318, (S)-2-((1-(6-((5-cyanopyridin-2-yl)methoxy)pyridin-2-yl)piperidin-4-ylidene)methyl)-7-fluoro-1-(oxetan-2-ylmethyl)-1H-benzo[d]imidazole-6-carboxylic acid]

EC50: 15 to 150 nM
Compound: O=C(O)c1ccc2nc(CC3CCC(c4cccc(OCc5ccc(Cl)cc5F)n4)CC3)n(C[C@@H]3CCO3)c2c1 (stereo partly drawn) [Compound 319, (S)-2-((4-(6-((4-chloro-2-fluorobenzyl)oxy)pyridin-2-yl)cyclohexyl)methyl)-1-(oxetan-2-ylmethyl)-1H-benzo[d]imidazole-6-carboxylic acid]

EC50: 15 to 150 nM
Compound: N#Cc1ccc(COc2cccc(-c3ccc(Nc4nc5ccc(C(=O)O)cc5n4C[C@@H]4CCO4)c(F)c3)n2)c(F)c1 [Compound 320, (S)-2-((4-(6-((4-cyano-2-fluorobenzyl)oxy)pyridin-2-yl)-2-fluorophenyl)amino)-1-(oxetan-2-ylmethyl)-1H-benzo[d]imidazole-6-carboxylic acid]

EC50: 15 to 150 nM
Compound: N#Cc1ccc(COc2cccc(-c3ccn(Cc4nc5ccc(C(=O)O)nc5n4C[C@@H]4CCO4)c(=O)c3)n2)c(F)c1 [Compound 324, (S)-2-((6-((4-cyano-2-fluorobenzyl)oxy)-2′-oxo-[2,4′-bipyridin]-1′(2′H)-yl)methyl)-3-(oxetan-2-ylmethyl)-3H-imidazo[4,5-b]pyridine-5-carboxylic acid]

EC50: 15 to 150 nM
Compound: N#Cc1ccc(COc2nc(-c3ccn(Cc4nc5ccc(C(=O)O)nc5n4C[C@@H]4CCO4)c(=O)c3)ncc2F)c(F)c1 [Compound 325, (S)-2-((4-(4-((4-cyano-2-fluorobenzyl)oxy)-5-fluoropyrimidin-2-yl)-2-oxopyridin-1(2H)-yl)methyl)-3-(oxetan-2-ylmethyl)-3H-imidazo[4,5-b]pyridine-5-carboxylic acid]

EC50: 15 to 150 nM
Compound: O=C(O)c1ccc2nc(CN3CC=C(c4cccc(OCc5ccc(Cl)cc5F)n4)CC3)c(Cc3cocn3)n2c1 [Compound 327, 2-((6-((4-chloro-2-fluorobenzyl)oxy)-3′,6′-dihydro-[2,4′-bipyridin]-1′(2′H)-yl)methyl)-3-(oxazol-4-ylmethyl)imidazo[1,2-a]pyridine-6-carboxylic acid]

EC50: 15 to 150 nM
Compound: N#Cc1ccc(COc2cccc(C3=CCN(Cc4nc5ccc(B(O)O)cc5n4C[C@@H]4CCO4)CC3)n2)c(F)c1 [Compound 328, (S)-(2-((6-((4-cyano-2-fluorobenzyl)oxy)-3′,6′-dihydro-[2,4′-bipyridin]-1′(2′H)-yl)methyl)-1-(oxetan-2-ylmethyl)-1H-benzo[d]imidazol-6-yl)boronic acid]

EC50: 15 to 150 nM
Compound: O=C(O)c1ccc2nc(CN3CC=C(c4cccnc4OCc4ccc(Cl)cc4F)CC3)n(C[C@@H]3CCO3)c2c1 [Compound 329, (S)-2-((2-((4-chloro-2-fluorobenzyl)oxy)-3′,6′-dihydro-[3,4′-bipyridin]-1′(2′H)-yl)methyl)-1-(oxetan-2-ylmethyl)-1H-benzo[d]imidazole-6-carboxylic acid]
